Measurements reported in patent US10717716B2, “1,3,4-oxadiazole derivative compounds as histone deacetylase 6 inhibitor, and the pharmaceutical composition comprising the same” (Chong Kun Dang Pharmaceutical Corp., priority 2015, dated 2020).

Molecular target: T1, human recombinant HDAC6 (Homo sapiens, UniProt Q9UBN7)
T1 construct: purchased Calbiochem 382180
T1 sequence (Q9UBN7 1-1215): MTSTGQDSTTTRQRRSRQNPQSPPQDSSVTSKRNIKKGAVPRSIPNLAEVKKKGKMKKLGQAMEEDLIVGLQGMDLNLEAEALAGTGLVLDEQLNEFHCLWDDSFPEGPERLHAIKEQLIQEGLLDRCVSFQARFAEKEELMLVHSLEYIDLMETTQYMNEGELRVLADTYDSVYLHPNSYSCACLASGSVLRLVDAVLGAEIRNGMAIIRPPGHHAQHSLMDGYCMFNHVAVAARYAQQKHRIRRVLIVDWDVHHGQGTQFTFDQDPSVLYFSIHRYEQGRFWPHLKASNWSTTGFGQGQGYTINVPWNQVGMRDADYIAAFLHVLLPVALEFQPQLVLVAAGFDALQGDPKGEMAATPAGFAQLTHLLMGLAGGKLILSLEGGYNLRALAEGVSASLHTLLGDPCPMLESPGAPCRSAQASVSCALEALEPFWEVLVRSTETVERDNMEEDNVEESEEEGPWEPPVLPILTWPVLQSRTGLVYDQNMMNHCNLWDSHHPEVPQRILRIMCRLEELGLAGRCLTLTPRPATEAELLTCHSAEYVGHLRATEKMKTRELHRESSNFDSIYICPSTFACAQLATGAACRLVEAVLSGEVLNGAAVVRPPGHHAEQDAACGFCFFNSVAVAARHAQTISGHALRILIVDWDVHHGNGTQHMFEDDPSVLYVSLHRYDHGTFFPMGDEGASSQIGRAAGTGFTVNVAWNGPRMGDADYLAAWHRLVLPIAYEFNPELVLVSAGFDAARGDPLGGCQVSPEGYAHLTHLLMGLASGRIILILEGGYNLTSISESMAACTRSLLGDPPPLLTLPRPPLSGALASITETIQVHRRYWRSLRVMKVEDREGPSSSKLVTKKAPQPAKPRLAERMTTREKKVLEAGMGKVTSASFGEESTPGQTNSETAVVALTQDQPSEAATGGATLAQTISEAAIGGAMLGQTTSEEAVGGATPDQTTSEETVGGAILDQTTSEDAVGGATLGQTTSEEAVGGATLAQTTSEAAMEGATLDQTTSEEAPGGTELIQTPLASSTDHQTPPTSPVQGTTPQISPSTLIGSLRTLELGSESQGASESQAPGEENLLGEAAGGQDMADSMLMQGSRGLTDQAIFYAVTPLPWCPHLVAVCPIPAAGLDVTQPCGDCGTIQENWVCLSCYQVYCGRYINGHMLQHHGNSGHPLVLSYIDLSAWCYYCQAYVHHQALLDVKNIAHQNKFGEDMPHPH
Experiment: HDAC6 enzyme activity inhibition assay (HDAC Fluorimetric Drug Discovery Kit)
Type: biochemical
Conditions: for HDAC6 selectivity (fold): HDAC6 over HDAC1; for IC50: human recombinant HDAC6, same protocol as HDAC1, read-out: HDAC6
In short: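 Fluorimetric deacetylase assay: 5-fold serial compound dilutions, 0.3 μg recombinant human enzyme (HDAC1 or HDAC6, same protocol), 10 μM Fluor de Lys-SIRT1 substrate, 60 min at 30 °C. Signal developed 30 min, measured at 360/460 nm; IC50 values derived.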

Row | Structure (SMILES) | HDAC6 selectivity (fold) | IC50 [µM]
1 | CCN1CC2(CCN(C(=O)N(Cc3ccc(-c4nnc(C(F)F)o4)cc3F)c3ccc4cnn(C)c4c3)CC2)C1 [Compound 21765, N-(4-(5-(Difluoromethyl)-1,3,4-oxadiazol-2-yl)-2-fluorobenzyl)-2-ethyl-N-(1-methyl-1H-indazol-6-yl)-2,7-diazaspiro[3.5]nonane-7-carboxamide] | 88 | 0.114
2 | O=C(N1CCOCC1)N(Cc1ccc(-c2nnc(C(F)F)o2)nc1)c1ccc(F)c(Cl)c1 [Compound 21766, N-(3-Chloro-4-fluorophenyl)-N-((6-(5-(difluoromethyl)-1,3,4-oxadiazol-2-yl)pyridin-3-yl)methyl)morpholine-4-carboxamide] | 88 | 0.114
3 | O=C(N1CCS(=O)(=O)CC1)N(Cc1ccc(-c2nnc(C(F)F)o2)nc1)c1ccc(F)c(Cl)c1 [Compound 21767, N-(3-Chloro-4-fluorophenyl)-N-((6-(5-(difluoromethyl)-1,3,4-oxadiazol-2-yl)pyridin-3-yl)methyl)thiomorpholine-4-carboxamide 1,1-dioxide] | 9 | 1.14
4 | O=C(N1CCS(=O)(=O)CC1)N(Cc1ccc(-c2nnc(C(F)F)o2)cc1F)c1ccc2c(c1)CCC2 [Compound 21797, N-(4-(5-(Difluoromethyl)-1,3,4-oxadiazol-2-yl)-2-fluorobenzyl)-N-(2,3-dihydro-1H-inden-5-yl)thiomorpholine-4-carboxamide 1,1-dioxide] | 37 | 0.268
5 | CC1(C)Cc2cccc(N(Cc3ccc(-c4nnc(C(F)F)o4)cc3F)C(=O)N3CCS(=O)(=O)CC3)c2O1 [Compound 21798, N-(4-(5-(Difluoromethyl)-1,3,4-oxadiazol-2-yl)-2-fluorobenzyl)-N-(2,2-dimethyl-2,3-dihydrobenzofuran-7-yl)thiomorpholine-4-carboxamide 1,1-dioxide] | 8 | 1.32
6 | Cn1ccc2cc(N(Cc3ccc(-c4nnc(C(F)F)o4)cc3F)C(=O)N3CCS(=O)(=O)CC3)ccc21 [Compound 21799, N-(4-(5-(difluoromethyl)-1,3,4-oxadiazol-2-yl)-2-fluorobenzyl)-N-(1-methyl-1H-indol-5-yl)thiomorpholine-4-carboxamide 1,1-dioxide] | 33 | 0.305
7 | CC(C)n1ncc2ccc(N(Cc3ccc(-c4nnc(C(F)F)o4)cc3F)C(=O)N3CCS(=O)(=O)CC3)cc21 [Compound 21812, N-(4-(5-(Difluoromethyl)-1,3,4-oxadiazol-2-yl)-2-fluorobenzyl)-N-(1-isopropyl-1H-indazol-6-yl)thiomorpholine-4-carboxamide 1,1-dioxide] | 94 | 0.107
8 | CC(C)c1nc2ccc(N(Cc3ccc(-c4nnc(C(F)F)o4)cc3F)C(=O)N3CCS(=O)(=O)CC3)cc2s1 [Compound 21813, N-(4-(5-(Difluoromethyl)-1,3,4-oxadiazol-2-yl)-2-fluorobenzyl)-N-(2-isopropylbenzo[d]thiazol-6-yl)thiomorpholine-4-carboxamide 1,1-dioxide] | 30 | 0.33
9 | O=C(N1CCOCC1)N(Cc1ccc(-c2nnc(C(F)F)o2)cc1F)c1ccc(Cl)cc1 [Compound 21849, N-(4-chlorophenyl)-N-(4-(5-(difluoromethyl)-1,3,4-oxadiazol-2-yl)-2-fluorobenzyl)morpholine-4-carboxamide] | 95 | 0.106

Stronger by IC50, values ahead:

Row | HDAC6 selectivity (fold) | IC50 [µM] | Structure (SMILES)
10 | 261 | 0.038 | O=C(N1CCS(=O)(=O)CC1)N(Cc1ccc(-c2nnc(C(F)F)o2)cc1F)c1ccc(F)cc1 [Compound 21806, N-(4-(5-(difluoromethyl)-1,3,4-oxadiazol-2-yl)-2-fluorobenzyl)-N-(4-fluorophenyl)thiomorpholine-4-carboxamide 1,1-dioxide]
11 | 256 | 0.039 | O=C(N1CCS(=O)(=O)CC1)N(Cc1ccc(-c2nnc(C(F)F)o2)cc1F)c1cccc(F)c1 [Compound 21807, N-(4-(5-(difluoromethyl)-1,3,4-oxadiazol-2-yl)-2-fluorobenzyl)-N-(3-fluorophenyl)thiomorpholine-4-carboxamide 1,1-dioxide]
12 | 174 | 0.057 | O=C(N1CCS(=O)(=O)CC1)N(Cc1ccc(-c2nnc(C(F)F)o2)cc1F)c1ccc(Cl)cc1 [Compound 21809, N-(4-chlorophenyl)-N-(4-(5-(difluoromethyl)-1,3,4-oxadiazol-2-yl)-2-fluorobenzyl)thiomorpholine-4-carboxamide 1,1-dioxide]
13 | 144 | 0.07 | CCn1ncc2ccc(N(Cc3ccc(-c4nnc(C(F)F)o4)cc3F)C(=O)N3CCS(=O)(=O)CC3)cc21 [Compound 21811, N-(4-(5-(Difluoromethyl)-1,3,4-oxadiazol-2-yl)-2-fluorobenzyl)-N-(1-ethyl-1H-indazol-6-yl)thiomorpholine-4-carboxamide 1,1-dioxide]
14 | 382 | 0.026 | O=C(N1CCOCC1)N(Cc1ccc(-c2nnc(C(F)F)o2)cc1F)c1ccc(F)cc1 [Compound 21841, N-(4-(5-(difluoromethyl)-1,3,4-oxadiazol-2-yl)-2-fluorobenzyl)-N-(4-fluorophenyl)morpholine-4-carboxamide]
15 | 461 | 0.022 | O=C(N1CCOCC1)N(Cc1ccc(-c2nnc(C(F)F)o2)cn1)c1cccc(F)c1 [Compound 21843, N-((5-(5-(difluoromethyl)-1,3,4-oxadiazol-2-yl)pyridin-2-yl)methyl)-N-(3-fluorophenyl) morpholine-4-carboxamide]
16 | 407 | 0.025 | O=C(N1CCOCC1)N(Cc1ccc(-c2nnc(C(F)F)o2)cn1)c1cccc(Cl)c1 [Compound 21851, N-(3-chlorophenyl)-N-((5-(5-(difluoromethyl)-1,3,4-oxadiazol-2-yl)pyridin-2-yl)methyl) morpholine-4-carboxamide]
17 | 248 | 0.04 | Cc1ccc(N(Cc2ccc(-c3nnc(C(F)F)o3)cn2)C(=O)N2CCOCC2)c(F)c1 [Compound 21855, N-((5-(5-(difluoromethyl)-1,3,4-oxadiazol-2-yl)pyridin-2-yl)methyl)-N-(2-fluoro-4-methylphenyl)morpholine-4-carboxamide]
18 | 105 | 0.095 | Cc1ccc(N(Cc2ccc(-c3nnc(C(F)F)o3)cc2F)C(=O)N2CCOCC2)c(F)c1 [Compound 21856, N-(4-(5-(difluoromethyl)-1,3,4-oxadiazol-2-yl)-2-fluorobenzyl)-N-(2-fluoro-4-methylphenyl)morpholine-4-carboxamide]
19 | 204 | 0.049 | CCN1CCN(C(=O)N(Cc2ccc(-c3nnc(C(F)F)o3)cc2F)c2ccc(Cl)cc2)CC1 [Compound 21881, N-(4-Chlorophenyl)-N-(4-(5-(difluoromethyl)-1,3,4-oxadiazol-2-yl)-2-fluorobenzyl)-4-ethylpiperazine-1-carboxamide]
20 | 251 | 0.04 | CCN1CCN(C(=O)N(Cc2ccc(-c3nnc(C(F)F)o3)cn2)c2ccc(Cl)cc2)CC1 [Compound 21882, N-(4-Chlorophenyl)-N-((5-(5-(difluoromethyl)-1,3,4-oxadiazol-2-yl)pyridin-2-yl)methyl)-4-ethylpiperazine-1-carboxamide]
21 | 268 | 0.037 | CCN1CCN(C(=O)N(Cc2ccc(-c3nnc(C(F)F)o3)cc2)c2cccc(F)c2)CC1 [Compound 21883, N-(4-(5-(Difluoromethyl)-1,3,4-oxadiazol-2-yl)benzyl)-4-ethyl-N-(3-fluorophenyl)piperazine-1-carboxamide]
22 | 303 | 0.033 | CCN1CCN(C(=O)N(Cc2ccc(-c3nnc(C(F)F)o3)cc2F)c2cccc(F)c2)CC1 [Compound 21884, N-(4-(5-(Difluoromethyl)-1,3,4-oxadiazol-2-yl)-2-fluorobenzyl)-4-ethyl-N-(3-fluorophenyl)piperazine-1-carboxamide]
